Values quoted from earlier work in patent US20080213362A1, “COMPOSITIONS AND METHODS USING TORSEMIDE” (priority 2007, published 2008).

Tests used:
[1] = diabetic or pre-diabetic patient, even during treatment with an anti-diabetic agent
[2] = 2.5 mg once daily

effect on blood sugar levels [1]: worsen blood sugar levels
SMILES: Cc1cccc(Nc2ccncc2S(=O)(=O)NC(=O)NC(C)C)c1 [torsemide]
anti-hypertensive effects [2]: statistically significant anti-hypertensive effects
